Test results taken from EPA's ToxValDB 9.5.
Where “and” joins values, the source holds several entries; their conditions need not be identical. Equal values may be shown once.

System: Rattus norvegicus
Conditions: subchronic, duration: 90 days, oral, gavage
[1] = F, Crl:CD(SD), Blood: Activated Partial Thromboplastin Time (APTT) + Blood: Cholesterol (CHOL), Total + Blood: Fluoride (Plasma) + Blood: Hematocrit (HCT…
[2] = F, Crl:CD(SD), Blood: Activated Partial Thromboplastin Time (APTT) + Blood: Hematocrit (HCT) + Blood: Hemoglobin (HGB) + Blood: Red Blood Cell (RBC) + …
[3] = F, Crl:CD(SD), Blood: Cholesterol (CHOL), Total + Kidney: Kidney Weight, Absolute + Kidney: Kidney Weight, Relative + Kidney: Kidney Weight, Relative to …
[4] = F, Crl:CD(SD), Blood: Fluoride (Plasma), Recovery + Blood: Inorganic Phosphorous (PHOS) + Calcium (CA) + Kidney: Blood Urea Nitrogen (BUN), Blood + Kidney…
[5] = F, Crl:CD(SD), General Toxicity: Whole Body: Body Weight Change + General Toxicity: Whole Body: Clinical Observations + General Toxicity: Whole Body: …
[6] = F, Crl:CD(SD), Hematologic: Blood: Activated Partial Thromboplastin Time (APTT) + Hematologic: Blood: Hematocrit (HCT) + Hematologic: Blood: Hemoglobin (…
[7] = F, Crl:CD(SD), Kidney: Kidney Weight, Absolute + Liver: Liver Histopathology + Liver: Liver Weight, Absolute + Renal: Urinalysis, Unspecified
[8] = F, Crl:CD(SD), Other Systems: Eye: Ophthalmology + Other Systems: Nasal Cavity: Nasal Cavity/Tubinates Inflammation, Chronic, Focal/Multifocal + Other …
[9] = F, Crl:CD(SD), Pancreas: Pancreas Histopathology
[10] = F, Sprague-Dawley, Hematologic: Blood: Activated Partial Thromboplastin Time (APTT) + Hematologic: Blood: Hematocrit (HCT) + Hematologic: Blood: Hemoglobin (…
[11] = M, Crl:CD(SD), Blood: Activated Partial Thromboplastin Time (APTT) + Blood: Albumin/Globulin (A/G) Ratio + Blood: Fluoride (Plasma) + Blood: Hematocrit (…
[12] = M, Crl:CD(SD), Blood: Activated Partial Thromboplastin Time (APTT) + Blood: Hematocrit (HCT) + Blood: Hemoglobin (HGB) + Blood: Red Blood Cell (RBC) + …
[13] = M, Crl:CD(SD), Blood: Fluoride (Plasma), Recovery + Blood: Hematocrit (HCT) + Blood: Hemoglobin (HGB) + Liver: Liver, Biliary Hyperplasia + Liver: Liver, …
[14] = M, Crl:CD(SD), Blood: Inorganic Phosphorous (PHOS) + Blood: Potassium (K), Blood + Kidney: Blood Urea Nitrogen (BUN), Blood + Kidney: Kidney Weight, …
[15] = M, Crl:CD(SD), Blood: Inorganic Phosphorous (PHOS), Blood + Blood: Potassium (K), Blood + Epididymis: Epididymis Weight, Relative + Kidney: Blood Urea …
[16] = M, Crl:CD(SD), Blood: Total Protein (TP), Blood + Kidney: Kidney Histopathology + Kidney: Kidney Weight, Absolute + Liver: Total Bilirubin (TBILI), Blood…
[17] = M, Crl:CD(SD), General Toxicity: Whole Body: Body Weight Change + General Toxicity: Whole Body: Clinical Observations + General Toxicity: Whole Body: …
[18] = M, Crl:CD(SD), Hematologic: Blood: Activated Partial Thromboplastin Time (APTT) + Hematologic: Blood: Hematocrit (HCT) + Hematologic: Blood: Hemoglobin (…
[19] = M, Sprague-Dawley, Hematologic: Blood: Activated Partial Thromboplastin Time (APTT) + Hematologic: Blood: Hematocrit (HCT) + Hematologic: Blood: Hemoglobin (…

NEL (F, Crl:CD(SD), Adrenal: Adrenal Gland Weight, Absolute + Adrenal: Adrenal Gland Weight, Relative + Blood: Basophils + Blood: Calcium (CA), Blood + Blood: …): 250 mg/kg-day
LEL [1]: 125 mg/kg-day
NEL [1]: 25 mg/kg-day
LEL [2]: 125 mg/kg-day
NEL [2]: 25 mg/kg-day
LEL [3]: 25 mg/kg-day
NEL [3]: 5 mg/kg-day
LEL [4]: 250 mg/kg-day
NEL [4]: 125 mg/kg-day
NEL (F, Crl:CD(SD), Blood: Inorganic Phosphorous (PHOS) + Blood: Triglycerides (TRIG) + Calcium (CA) + Kidney: Blood Urea Nitrogen (BUN), Blood + Kidney: …): 250 mg/kg-day
LEL [7]: 25 mg/kg-day
NEL [7]: 5 mg/kg-day
LEL [9]: 250 mg/kg-day
NEL [9]: 125 mg/kg-day
NEL (M, Crl:CD(SD), Adrenal: Adrenal Gland Weight, Absolute + Adrenal: Adrenal Gland Weight, Relative + Blood: Basophils + Blood: Calcium (CA), Blood + Blood: …): 250 mg/kg-day
LEL [11]: 25 mg/kg-day
NEL [11]: 5 mg/kg-day
LEL [12]: 25 mg/kg-day
NEL [12]: 5 mg/kg-day
LEL [13]: 250 mg/kg-day
NEL [13]: 125 mg/kg-day
LEL [14]: 125 mg/kg-day
NEL [14]: 25 mg/kg-day
LEL [15]: 125 mg/kg-day
NEL [15]: 25 mg/kg-day
LEL [16]: 250 mg/kg-day
NEL [16]: 125 mg/kg-day
SMILES: OCCC(F)(F)C(F)(F)C(F)(F)C(F)(F)C(F)(F)C(F)(F)F [2-(Perfluorohexyl)ethanol]
LOAEL (F, Crl:CD(SD), Cardiovascular: Heart: Heart Weight, Absolute + Cardiovascular: Heart: Heart Weight, Relative + Endocrine: Adrenal: Adrenal Gland Weight, …): 25 mg/kg-day
LOAEL [5]: 125 mg/kg-day
NOAEL [5]: 25 mg/kg-day
LOAEL [6]: 25 mg/kg-day
NOAEL [6]: 5 mg/kg-day
LOAEL [8]: 250 mg/kg-day
NOAEL [8]: 125 mg/kg-day
LOAEL [10]: 25 mg/kg-day
NOAEL [10]: 5 mg/kg-day
NOAEL (F, Sprague-Dawley, Other Systems: Tooth: Tooth Discoloration + Other Systems: Tooth: Tooth Discoloration, Recovery + Other Systems: Tooth: Tooth Findings, …): 250 mg/kg-day
LOAEL (M, Crl:CD(SD), Cardiovascular: Heart: Heart Weight, Absolute + Cardiovascular: Heart: Heart Weight, Relative + Endocrine: Adrenal: Adrenal Gland Weight, …): 25 mg/kg-day
LOAEL [17]: 125 mg/kg-day
NOAEL [17]: 25 mg/kg-day
LOAEL [18]: 25 mg/kg-day
NOAEL [18]: 5 mg/kg-day
LOAEL (M, Crl:CD(SD), Immune: Blood: Basophils + Immune: Blood: Eosinophils + Immune: Blood: Lymphocyte + Immune: Blood: Monocytes + Immune: Blood: Neutrophils + …): 250 mg/kg-day
LOAEL (M, Crl:CD(SD), Other Systems: Eye: Ophthalmology + Other Systems: Nasal Cavity: Nasal Cavity/Tubinates Inflammation, Chronic, Focal/Multifocal + Other …): 125 mg/kg-day and 250 mg/kg-day
LOAEL (M, Crl:CD(SD), Reproductive: Epididymis: Epididymis Weight, Absolute + Reproductive: Epididymis: Epididymis Weight, Relative + Reproductive: Testis: Testis…): 5 mg/kg-day
LOAEL [19]: 25 mg/kg-day
NOAEL [19]: 5 mg/kg-day
NOAEL (M, Sprague-Dawley, Other Systems: Blood: Potassium (K) + Other Systems: Tooth: Tooth Discoloration + Other Systems: Tooth: Tooth Discoloration, Recovery + …): 250 mg/kg-day
